DBAASP
In brackets after ≈: the same amount, converted by molar mass.

How the values were obtained:
Experiment in all cases: ≥ marks a high value that may be exact or a test limit, other limits are often not marked, values filed in µg/mL are converted to µM
[1] = test system: Escherichia coli ATCC 2592
[2] = test system: Pseudomonas aeruginosa ATCC 10145
[3] = test system: Staphylococcus aureus ATCC 33591
[4] = test system: Cryptococcus neoformans ATCC 32045
[5] = test system: Candida albicans ATCC 10231
[6] = test system: Staphylococcus epidermidis ATCC 12228
Escherichia coli K88 = test system: Escherichia coli K88
[7] = test system: Staphylococcus aureus ATCC 29213
[8] = test system: Streptococcus agalactiae BNCC 185941
[9] = test system: Lacticaseibacillus rhamnosus 1.0911
[10] = test system: Lacticaseibacillus rhamnosus 1.0936
[11] = test system: Salmonella enterica subsp. enterica serovar Pullorum C79-13
[12] = test system: Escherichia coli O157:H7 CICC 21530
[13] = test system: Pseudomonas aeruginosa ATCC 27853
[14] = test system: Salmonella enterica subsp. enterica serovar Typhimurium ATCC 14028
[15] = test system: Salmonella enterica subsp. enterica serovar Choleraesuis CVCC 503
[16] = test system: Staphylococcus aureus ATCC 43300
[17] = test system: Pseudomonas aeruginosa PAO1
[18] = test system: Escherichia coli ATCC 25922
[19] = test system: Lacticaseibacillus rhamnosus 8014
[20] = test system: Lacticaseibacillus rhamnosus 1.9021
[21] = test system: Pseudomonas aeruginosa H187
Escherichia coli UB1005 = test system: Escherichia coli UB1005
[22] = test system: Bacillus cereus ATCC 14579
[23] = test system: Enterococcus faecium 5F-10
[24] = test system: Bacillus licheniformis ATCC 14580
[25] = test system: Enterococcus faecalis 1F-1
[26] = test system: Proteus mirabilis ATCC 35659
[27] = test system: Bacillus amyloliquefaciens ATCC 23842
[28] = test system: Salmonella enterica ATCC H9812
[29] = test system: Bacillus subtilis ATCC 6051
[30] = test system: Listeria monocytogenes CMCC 54004
[31] = test system: Cronobacter sakazakii ATCC 29544
[32] = test system: Salmonella enterica subsp. enterica serovar Typhimurium C77-31
[33] = test system: Salmonella enterica subsp. enterica CMCC 47020
[34] = test system: Salmonella enterica subsp. enterica serovar Typhi CMCC 50071
[35] = test system: Bacillus cereus CMCC 6303
[36] = test system: Staphylococcus aureus CMCC 26074
[37] = test system: Staphylococcus aureus ATCC 25923
[38] = test system: Escherichia coli KCTC 1682
[39] = test system: Bacillus subtilis KCTC 3068
[40] = test system: Salmonella typhimurium KCTC 1926
[41] = test system: Staphylococcus aureus KCTC 1621
[42] = test system: Pseudomonas aeruginosa KCTC 1637
[43] = test system: Staphylococcus epidermidis KCTC 1917

`C[C@H](NC(=O)[C@H](Cc1ccccc1)NC(=O)[C@@H](N)CCCCN)C(=O)N[C@@H](CCCCN)C(=O)O` [KFAK] showed an MIC [1] of no less than 507 µM, an MIC [2] of no less than 1010 µM and an MIC [3] of no less than 1010 µM. It also gave an MIC [4] of no less than 1010 µM and an MIC [5] greater than 1010 µM.
`C[C@H](NC(=O)[C@H](CCCCN)NC(=O)[C@H](CCCCN)NC(=O)[C@H](CCCCN)NC(=O)[C@H](C)NC(=O)[C@H](CCCCN)NC(=O)[C@H](CCCCN)NC(=O)[C@H](CCCCN)NC(=O)[C@H](C)NC(=O)[C@H](CCCCN)NC(=O)[C@H](CCCCN)NC(=O)[C@H](CCCCN)NC(=O)[C@H](C)NC(=O)[C@H](CCCCN)NC(=O)[C@H](CCCCN)NC(=O)[C@H](CCCCN)NC(=O)[C@H](C)NC(=O)[C@H](CCCCN)NC(=O)[C@H](CCCCN)NC(=O)[C@H](CCCCN)NC(=O)[C@H](C)NC(=O)[C@H](CCCCN)NC(=O)[C@H](CCCCN)NC(=O)[C@H](CCCCN)NC(=O)[C@H](C)NC(=O)[C@H](CCCCN)NC(=O)[C@@H](N)CCCCN)C(=O)N[C@@H](CCCCN)C(=O)O` [KKAKKKAKKKAKKKAKKKAKKKAKKKAK] was tested, and the MIC [1] was 13.7 µM (≈ 43.8 µg/mL), the MIC [2] was no less than 39 µM and the MIC [4] was 19.6 µM (≈ 63 µg/mL). The MIC [5] was greater than 78 µM.
`CC(C)C[C@H](NC(=O)CNC(=O)[C@H](Cc1c[nH]c2ccccc12)NC(=O)CNC(=O)[C@H](CC(C)C)NC(=O)[C@H](CC(C)C)NC(=O)[C@H](CCCCN)NC(=O)[C@@H](N)CCCCN)C(=O)N[C@@H](CC(C)C)C(=O)N[C@@H](CCCCN)C(=O)N[C@@H](CCCCN)C(N)=O` [KKLLGWGLLKK] showed an MIC [6] greater than 128 µM, an MIC (Escherichia coli K88) of no less than 64 µM and an MIC [7] greater than 128 µM. The MIC [8] was no less than 128 µM, the MIC [9] was no less than 128 µM and the MIC [10] was no less than 128 µM. It also gave an MIC [11] of no less than 64 µM, an MIC [12] of no less than 128 µM and an MIC [13] greater than 128 µM. It also gave an MIC [14] greater than 128 µM, an MIC [15] of no less than 128 µM and an MIC [16] greater than 128 µM. The MIC [17] was greater than 128 µM, the MIC [18] was greater than 128 µM and the MIC [19] was no less than 128 µM. For the same compound, the MIC [20] was no less than 128 µM.
`CC[C@H](C)[C@H](NC(=O)[C@H](Cc1ccccc1)NC(=O)[C@H](CCCCN)NC(=O)[C@H](CCCCN)NC(=O)[C@H](Cc1c[nH]c2ccccc12)NC(=O)[C@@H](N)CCCCN)C(=O)N[C@@H](CCCCN)C(=O)N[C@@H](CCC(=O)O)C(=O)N[C@@H](CC(C)C)C(=O)N[C@@H](CCC(N)=O)C(=O)N[C@@H](CCCCN)C(=O)N[C@H](C(=O)N[C@@H](CC(C)C)C(=O)N[C@@H](C)C(=O)N1CCC[C@H]1C(=O)NCC(=O)NCC(=O)N[C@@H](CC(C)C)C(=O)N[C@@H](CC(C)C)C(=O)N[C@@H](CO)C(=O)N[C@@H](CC(N)=O)C(=O)N[C@H](C(=O)N[C@H](C(=O)N[C@H](C(=O)N[C@@H](CO)C(=O)N[C@@H](CC(C)C)C(=O)O)[C@@H](C)O)C(C)C)[C@@H](C)CC)C(C)C` [KWKKFIKELQKVLAPGGLLSNIVTSL] showed an MIC [21] of 3.43 µM (≈ 10 µg/mL) and an MIC (Escherichia coli UB1005) of 1.72 µM (≈ 5 µg/mL).
Work on `CC(C)C[C@H](NC(=O)[C@@H](N)CC(C)C)C(=O)N[C@@H](CO)C(=O)N[C@@H](CCCN=C(N)N)C(=O)N[C@H](C(=O)O)C(C)C` [LLSRV] yielded an MIC [22] of no less than 218 µM, an MIC [23] of no less than 218 µM and an MIC [24] of no less than 218 µM. The MIC [25] was no less than 218 µM, the MIC [7] was greater than 218 µM and the MIC [26] was no less than 218 µM. For the same compound, the MIC [17] was greater than 218 µM, the MIC [18] was greater than 218 µM and the MIC [27] was no less than 218 µM. It also gave an MIC [28] of no less than 218 µM and an MIC [29] of no less than 218 µM.
`CC[C@H](C)[C@H](NC(=O)[C@H](CCCN=C(N)N)NC(=O)[C@H](CCCN=C(N)N)NC(=O)[C@H](CCCCN)NC(=O)[C@@H](N)CCCN=C(N)N)C(=O)N[C@H](C(=O)N[C@H](C(=O)N[C@H](C(=O)N[C@@H](CCCN=C(N)N)C(=O)N[C@@H](CCCN=C(N)N)C(=O)N[C@@H](CCCCN)C(=O)N[C@@H](CCCN=C(N)N)C(N)=O)[C@@H](C)CC)C(C)C)C(C)C` [RKRRIVVIRRKR] showed an MIC [30] of no less than 32 µM, an MIC (Escherichia coli UB1005) of no less than 256 µM and an MIC [31] of no less than 256 µM. For the same compound, the MIC [32] was no less than 256 µM, the MIC [33] was no less than 256 µM and the MIC [34] was no less than 256 µM. The MIC [35] was no less than 128 µM, the MIC [11] was no less than 256 µM and the MIC [36] was no less than 256 µM. The MIC [14] was 128 µM (≈ 209 µg/mL) and the MIC [37] was greater than 256 µM.
`CC[C@H](C)[C@@H]1NC(=O)[C@H](CCCN=C(N)N)NC(=O)[C@@H](NC(=O)[C@H](CC(C)C)NC(=O)[C@@H](N)CCCN=C(N)N)CSSC[C@@H](C(=O)N[C@@H](CCCN=C(N)N)C(N)=O)NC(=O)[C@H](C(C)C)NC(=O)[C@H](CCCN=C(N)N)NC(=O)[C@H]([C@@H](C)CC)NC(=O)[C@H](C(C)C)NC(=O)[C@H](C(C)C)NC1=O` [RLCRIVVIRVCR] gave an MIC [30] of no less than 128 µM, an MIC [38] of 8.41 µM (≈ 12.5 µg/mL) and an MIC (Escherichia coli UB1005) of no less than 128 µM. It also gave an MIC [39] of 4.21 µM (≈ 6.24 µg/mL), an MIC [31] of no less than 256 µM and an MIC [32] of no less than 256 µM. It also gave an MIC [33] of no less than 128 µM, an MIC [34] of no less than 64 µM and an MIC [35] of no less than 64 µM. The MIC [11] was no less than 256 µM, the MIC [36] was no less than 256 µM and the MIC [14] was 128 µM (≈ 190 µg/mL). The MIC [40] was 4.21 µM (≈ 6.24 µg/mL), the MIC [41] was 4.21 µM (≈ 6.24 µg/mL) and the MIC [42] was 16.8 µM (≈ 25 µg/mL). For the same compound, the MIC [37] was greater than 256 µM and the MIC [43] was 4.21 µM (≈ 6.24 µg/mL).
